Data from patent US9738634B2, “Heterocyclic amide compound and herbicide” (SYNGENTA PARTICIPATIONS AG, priority 2013, dated 2017).

Columns and labels:
Format in all cases: in vivo
directly sown rice = assay: Test Example 3: soil treatment, effect on crop; b: directly sown rice; settings: soil treatment, treatment dosage 320 g/ha
Method in brief: (§1)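 Crop and weed responses were judged three weeks after a uniform surface spray of the water-diluted emulsion at the given g/ha rate. Seeds sat beneath about 1.5 cm of sterilized diluvial soil, and boxes stood in a greenhouse at 25 to 30° C.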

crabgrass = assay: Test Example 3: weedkilling efficacy through soil treatment; D: crabgrass; settings: soil treatment, treatment dosage 320 g/ha
Method in brief: as §1

Indian mallow = assay: Test Example 3: weedkilling efficacy through soil treatment; K: Indian mallow; settings: soil treatment, treatment dosage 320 g/ha
Method in brief: as §1

green foxtail = assay: Test Example 3: weedkilling efficacy through soil treatment; E: green foxtail; settings: soil treatment, treatment dosage 320 g/ha
Method in brief: as §1

fig-leafed goosefoot = assay: Test Example 3: weedkilling efficacy through soil treatment; M: fig-leafed goosefoot; settings: soil treatment, treatment dosage 320 g/ha
Method in brief: as §1

redroot pigweed = assay: Test Example 3: weedkilling efficacy through soil treatment; L: redroot pigweed; settings: soil treatment, treatment dosage 320 g/ha
Method in brief: as §1

oval-leafed pondweed [1] = assay: Test Example 2: weedkilling efficacy, growth period weed treatment in the submerged state; C: oval-leafed pondweed; settings: treatment dosage 320 g/ha
Method in brief: (§2)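 Seedlings at 1-2 leaves in 4 cm-deep submerged alluvial soil received emulsion formulations on the water surface, dosed per hectare; effects were judged 3 weeks on.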

black-grass = assay: Test Example 3: weedkilling efficacy through soil treatment; H: black-grass; settings: soil treatment, treatment dosage 320 g/ha
Method in brief: as §1

Italian ryegrass = assay: Test Example 3: weedkilling efficacy through soil treatment; I: Italian ryegrass; settings: soil treatment, treatment dosage 320 g/ha
Method in brief: as §1

soybean = assay: Test Example 3: soil treatment, effect on crop; d: soybean; settings: soil treatment, treatment dosage 320 g/ha
Method in brief: as §1

rapeseed = assay: Test Example 3: soil treatment, effect on crop; g: rapeseed; settings: soil treatment, treatment dosage 320 g/ha
Method in brief: as §1

transplanted rice = assay: Test Example 1: preemergent weed treatment in the submerged state, effect on crop; a: transplanted rice; settings: treatment dosage 320 g/ha
Method in brief: (§3)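 Submerged pre-emergence treatment, water-surface application of compound emulsion at g/ha dosages; 4 cm flooded alluvial soil, weeds sown and 2.5-leaf rice transplanted same day. Rated after 3 weeks, greenhouse.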

catchweed = assay: Test Example 3: weedkilling efficacy through soil treatment; O: catchweed; settings: soil treatment, treatment dosage 320 g/ha
Method in brief: as §1

beet = assay: Test Example 3: soil treatment, effect on crop; f: beet; settings: soil treatment, treatment dosage 320 g/ha
Method in brief: as §1

birds-eye speedwell = assay: Test Example 3: weedkilling efficacy through soil treatment; p: birds-eye speedwell; settings: soil treatment, treatment dosage 320 g/ha
Method in brief: as §1

wild oat = assay: Test Example 3: weedkilling efficacy through soil treatment; G: wild oat; settings: soil treatment, treatment dosage 320 g/ha
Method in brief: as §1

barnyard grass [2] = assay: Test Example 1: weedkilling efficacy, preemergent weed treatment in the submerged state; A: barnyard grass; settings: treatment dosage 320 g/ha
Method in brief: as §3

chickweed = assay: Test Example 3: weedkilling efficacy through soil treatment; N: chickweed; settings: soil treatment, treatment dosage 320 g/ha
Method in brief: as §1

wheat = assay: Test Example 3: soil treatment, effect on crop; e: wheat; settings: soil treatment, treatment dosage 320 g/ha
Method in brief: as §1

barnyard grass [3] = assay: Test Example 3: weedkilling efficacy through soil treatment; F: barnyard grass; settings: soil treatment, treatment dosage 320 g/ha
Method in brief: as §1

corn = assay: Test Example 3: soil treatment, effect on crop; c: corn; settings: soil treatment, treatment dosage 320 g/ha
Method in brief: as §1

bulrush [4] = assay: Test Example 2: weedkilling efficacy, growth period weed treatment in the submerged state; B: bulrush; settings: treatment dosage 320 g/ha
Method in brief: as §2

bulrush [5] = assay: Test Example 1: weedkilling efficacy, preemergent weed treatment in the submerged state; B: bulrush; settings: treatment dosage 320 g/ha
Method in brief: as §3

common wind-grass = assay: Test Example 3: weedkilling efficacy through soil treatment; J: common wind-grass; settings: soil treatment, treatment dosage 320 g/ha
Method in brief: as §1

oval-leafed pondweed [6] = assay: Test Example 1: weedkilling efficacy, preemergent weed treatment in the submerged state; C: oval-leafed pondweed; settings: treatment dosage 320 g/ha
Method in brief: as §3

barnyard grass [7] = assay: Test Example 2: weedkilling efficacy, growth period weed treatment in the submerged state; A: barnyard grass; settings: treatment dosage 320 g/ha
Method in brief: as §2

SMILES	b: directly sown rice, effect on crop grade (directly sown rice)	D: crabgrass, weedkilling efficacy grade (crabgrass)	K: Indian mallow, weedkilling efficacy grade (Indian mallow)	E: green foxtail, weedkilling efficacy grade (green foxtail)	M: fig-leafed goosefoot, weedkilling efficacy grade (fig-leafed goosefoot)	L: redroot pigweed, weedkilling efficacy grade (redroot pigweed)	C (oval-leafed pondweed) weedkilling efficacy grade (oval-leafed pondweed [1])	H: black-grass, weedkilling efficacy grade (black-grass)	I: Italian ryegrass, weedkilling efficacy grade (Italian ryegrass)	d: soybean, effect on crop grade (soybean)	g: rapeseed, effect on crop grade (rapeseed)	a: transplanted rice, effect on crop grade (transplanted rice)	O: catchweed, weedkilling efficacy grade (catchweed)	f: beet, effect on crop grade (beet)	P: birds-eye speedwell, weedkilling efficacy grade (birds-eye speedwell)	G: wild oat, weedkilling efficacy grade (wild oat)	A: barnyard grass, weed kill grade (barnyard grass [2])	N: chickweed, weedkilling efficacy grade (chickweed)	e: wheat, effect on crop grade (wheat)	F: barnyard grass, weedkilling efficacy grade (barnyard grass [3])	also measured
CC(C)(C(=O)Nc1ccc(F)cn1)N1COCN(c2ccccc2)C1=O [A-2-04]	0 (weed kill ratio 5% or less (practically no effect))	3 (weed kill ratio 40% or more, less than 70%)	0 (weed kill ratio 5% or less (practically no effect))	3 (weed kill ratio 40% or more, less than 70%)	0 (weed kill ratio 5% or less (practically no effect))	0 (weed kill ratio 5% or less (practically no effect))	4 (weed kill ratio 70% or more, less than 90%)	2 (weed kill ratio 20% or more, less than 40%)	3 (weed kill ratio 40% or more, less than 70%)	0 (weed kill ratio 5% or less (practically no effect))	0 (weed kill ratio 5% or less (practically no effect))	0 (weed kill ratio 5% or less (practically no effect))	0 (weed kill ratio 5% or less (practically no effect))	0 (weed kill ratio 5% or less (practically no effect))	0 (weed kill ratio 5% or less (practically no effect))	0 (weed kill ratio 5% or less (practically no effect))	4 (weed kill ratio 70% or more, less than 90%)	2 (weed kill ratio 20% or more, less than 40%)	0 (weed kill ratio 5% or less (practically no effect))	3 (weed kill ratio 40% or more, less than 70%)	c: corn, effect on crop grade (corn): 0 (weed kill ratio 5% or less (practically no effect)); B (bulrush) weedkilling efficacy grade (bulrush [4]): 5 (weed kill ratio 90% or more, (practically complete withering)); B: bulrush, weed kill grade (bulrush [5]): 5 (weed kill ratio 90% or more, (practically complete withering)); J: common wind-grass, weedkilling efficacy grade (common wind-grass): 4 (weed kill ratio 70% or more, less than 90%); C: oval-leafed pondweed, weed kill grade (oval-leafed pondweed [6]): 4 (weed kill ratio 70% or more, less than 90%); A (barnyard grass) weedkilling efficacy grade (barnyard grass [7]): 5 (weed kill ratio 90% or more, (practically complete withering))
CC(C)(C(=O)Nc1cc(C2CC2)cc(Cl)n1)N1COCN(c2ccccc2)C1=O [A-2-30]	3 (weed kill ratio 40% or more, less than 70%)	5 (weed kill ratio 90% or more, (practically complete withering))	0 (weed kill ratio 5% or less (practically no effect))	5 (weed kill ratio 90% or more, (practically complete withering))	3 (weed kill ratio 40% or more, less than 70%)	0 (weed kill ratio 5% or less (practically no effect))	5 (weed kill ratio 90% or more, (practically complete withering))	5 (weed kill ratio 90% or more, (practically complete withering))	5 (weed kill ratio 90% or more, (practically complete withering))	0 (weed kill ratio 5% or less (practically no effect))	4 (weed kill ratio 70% or more, less than 90%)	1 (weed kill ratio 5% or more, less than 20%)	0 (weed kill ratio 5% or less (practically no effect))	3 (weed kill ratio 40% or more, less than 70%)	4 (weed kill ratio 70% or more, less than 90%)	4 (weed kill ratio 70% or more, less than 90%)	5 (weed kill ratio 90% or more, (practically complete withering))	3 (weed kill ratio 40% or more, less than 70%)	1 (weed kill ratio 5% or more, less than 20%)	5 (weed kill ratio 90% or more, (practically complete withering))	c: corn, effect on crop grade (corn): 0 (weed kill ratio 5% or less (practically no effect)); B (bulrush) weedkilling efficacy grade (bulrush [4]): 5 (weed kill ratio 90% or more, (practically complete withering)); B: bulrush, weed kill grade (bulrush [5]): 5 (weed kill ratio 90% or more, (practically complete withering)); J: common wind-grass, weedkilling efficacy grade (common wind-grass): 5 (weed kill ratio 90% or more, (practically complete withering)); C: oval-leafed pondweed, weed kill grade (oval-leafed pondweed [6]): 5 (weed kill ratio 90% or more, (practically complete withering)); A (barnyard grass) weedkilling efficacy grade (barnyard grass [7]): 5 (weed kill ratio 90% or more, (practically complete withering))
COc1cc(F)nc(NC(=O)C(C)(C)N2COCN(c3ccccc3)C2=O)c1 [A-2-23]	5 (weed kill ratio 90% or more, (practically complete withering))	5 (weed kill ratio 90% or more, (practically complete withering))	0 (weed kill ratio 5% or less (practically no effect))	5 (weed kill ratio 90% or more, (practically complete withering))	4 (weed kill ratio 70% or more, less than 90%)	0 (weed kill ratio 5% or less (practically no effect))	5 (weed kill ratio 90% or more, (practically complete withering))	5 (weed kill ratio 90% or more, (practically complete withering))	5 (weed kill ratio 90% or more, (practically complete withering))	0 (weed kill ratio 5% or less (practically no effect))	4 (weed kill ratio 70% or more, less than 90%)	3 (weed kill ratio 40% or more, less than 70%)	4 (weed kill ratio 70% or more, less than 90%)	3 (weed kill ratio 40% or more, less than 70%)	5 (weed kill ratio 90% or more, (practically complete withering))	4 (weed kill ratio 70% or more, less than 90%)	5 (weed kill ratio 90% or more, (practically complete withering))	4 (weed kill ratio 70% or more, less than 90%)	0 (weed kill ratio 5% or less (practically no effect))	5 (weed kill ratio 90% or more, (practically complete withering))	c: corn, effect on crop grade (corn): 0 (weed kill ratio 5% or less (practically no effect)); B (bulrush) weedkilling efficacy grade (bulrush [4]): 5 (weed kill ratio 90% or more, (practically complete withering)); B: bulrush, weed kill grade (bulrush [5]): 5 (weed kill ratio 90% or more, (practically complete withering)); J: common wind-grass, weedkilling efficacy grade (common wind-grass): 5 (weed kill ratio 90% or more, (practically complete withering)); C: oval-leafed pondweed, weed kill grade (oval-leafed pondweed [6]): 5 (weed kill ratio 90% or more, (practically complete withering)); A (barnyard grass) weedkilling efficacy grade (barnyard grass [7]): 5 (weed kill ratio 90% or more, (practically complete withering))
